Data from PubChem BioAssay AID1918944 (Molecular Pharmacology Branch, DTP, NCI, 2023).

System: 786-0 complex spheroid viability
Assay: Anticancer human tumor 786-0 cell line growth inhibition;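 note: spheroids exposed to agents for seven days before readout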
Conditions: for IC50: curve of first compound; for viability, T/C: stronger effect = lower value
Summary of the method: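 Drug combinations with the LSD1 inhibitor iadademstat tested on tumor cells co-cultured as spheroids with endothelial cells and mesenchymal stem cells. Concentrations descended in half-log increments from clinical Cmax or 10 microM.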

[1] = second compound 0.1 µM, first compound 0.00316 µM
[2] = second compound 0.1 µM, first compound 0.01 µM
[3] = second compound 0.1 µM, first compound 0.0316 µM
[4] = second compound 0.1 µM, first compound 0.1 µM
[5] = second compound 0.1 µM, first compound 0.316 µM
[6] = second compound 0.1 µM, first compound 1 µM
[7] = second compound 0.316 µM, first compound 0.00316 µM
[8] = second compound 0.316 µM, first compound 0.01 µM
[9] = second compound 0.316 µM, first compound 0.0316 µM
[10] = second compound 0.316 µM, first compound 0.1 µM
[11] = second compound 0.316 µM, first compound 0.316 µM
[12] = second compound 0.316 µM, first compound 1 µM
[13] = second compound 1 µM, first compound 0.00316 µM
[14] = second compound 1 µM, first compound 0.01 µM
[15] = second compound 1 µM, first compound 0.0316 µM
[16] = second compound 1 µM, first compound 0.1 µM
[17] = second compound 1 µM, first compound 0.316 µM
[18] = second compound 1 µM, first compound 1 µM
[19] = second compound 3.16 µM, first compound 0.00316 µM
[20] = second compound 3.16 µM, first compound 0.01 µM
[21] = second compound 3.16 µM, first compound 0.0316 µM
[22] = second compound 3.16 µM, first compound 0.1 µM
[23] = second compound 3.16 µM, first compound 0.316 µM
[24] = second compound 3.16 µM, first compound 1 µM
[25] = second compound 10 µM, first compound 0.00316 µM
[26] = second compound 10 µM, first compound 0.01 µM
[27] = second compound 10 µM, first compound 0.0316 µM
[28] = second compound 10 µM, first compound 0.1 µM
[29] = second compound 10 µM, first compound 0.316 µM
[30] = second compound 10 µM, first compound 1 µM
[31] = second compound 0.1 µM, first compound 3.16 µM
[32] = second compound 0.1 µM, first compound 10 µM
[33] = second compound 0.316 µM, first compound 3.16 µM
[34] = second compound 0.316 µM, first compound 10 µM
[35] = second compound 1 µM, first compound 3.16 µM
[36] = second compound 1 µM, first compound 10 µM
[37] = second compound 3.16 µM, first compound 3.16 µM
[38] = second compound 3.16 µM, first compound 10 µM
[39] = second compound 10 µM, first compound 3.16 µM
[40] = second compound 10 µM, first compound 10 µM

SMILES: CC1COCCN1c1cc(-c2ccnn2C)c2ccnc(-c3ccn[nH]3)c2n1 (stereo not given) + NC1CCC(NC2CC2c2ccccc2)CC1
- IC50 (second compound 0.1 µM): 37.3 nM
- IC50 (second compound 0.316 µM): 36.9 nM
- IC50 (second compound 1 µM): 30.7 nM
- IC50 (second compound 3.16 µM): 22.4 nM
- IC50 (second compound 10 µM): 12.4 nM
- viability, T/C [1]: 112%
- viability, T/C [2]: 110%
- viability, T/C [3]: 55.5%
- viability, T/C [4]: 16.3%
- viability, T/C [5]: 8.21%
- viability, T/C [6]: 10.2%
- viability, T/C [7]: 123%
- viability, T/C [8]: 114%
- viability, T/C [9]: 55.1%
- viability, T/C [10]: 16.2%
- viability, T/C [11]: 7.09%
- viability, T/C [12]: 12.1%
- viability, T/C [13]: 116%
- viability, T/C [14]: 104%
- viability, T/C [15]: 48.3%
- viability, T/C [16]: 15.1%
- viability, T/C [17]: 5.97%
- viability, T/C [18]: 11.4%
- viability, T/C [19]: 107%
- viability, T/C [20]: 83.1%
- viability, T/C [21]: 35.9%
- viability, T/C [22]: 12.4%
- viability, T/C [23]: 5.34%
- viability, T/C [24]: 9.25%
- viability, T/C [25]: 77.4%
- viability, T/C [26]: 57%
- viability, T/C [27]: 19.2%
- viability, T/C [28]: 5.5%
- viability, T/C [29]: 3.62%
- viability, T/C [30]: 12%

SMILES: CC1COCCN1c1cc(C2(S(C)(=N)=O)CC2)nc(-c2ccnc3[nH]ccc23)n1 (stereo not given) + NC1CCC(NC2CC2c2ccccc2)CC1
- IC50 (second compound 0.1 µM): 886 nM
- IC50 (second compound 0.316 µM): 792 nM
- IC50 (second compound 1 µM): 795 nM
- IC50 (second compound 3.16 µM): 604 nM
- IC50 (second compound 10 µM): 294 nM
- viability, T/C [3]: 118%
- viability, T/C [4]: 114%
- viability, T/C [5]: 104%
- viability, T/C [6]: 43%
- viability, T/C [31]: 15.3%
- viability, T/C [32]: 6.76%
- viability, T/C [9]: 125%
- viability, T/C [10]: 116%
- viability, T/C [11]: 93.4%
- viability, T/C [12]: 38.1%
- viability, T/C [33]: 14.7%
- viability, T/C [34]: 6.62%
- viability, T/C [15]: 112%
- viability, T/C [16]: 116%
- viability, T/C [17]: 89.2%
- viability, T/C [18]: 40%
- viability, T/C [35]: 13%
- viability, T/C [36]: 4.93%
- viability, T/C [21]: 109%
- viability, T/C [22]: 103%
- viability, T/C [23]: 72.8%
- viability, T/C [24]: 32.3%
- viability, T/C [37]: 9.43%
- viability, T/C [38]: 5.16%
- viability, T/C [27]: 94.1%
- viability, T/C [28]: 77.5%
- viability, T/C [29]: 48.3%
- viability, T/C [30]: 20.8%
- viability, T/C [39]: 5.55%
- viability, T/C [40]: 2.91%

SMILES: CC[C@@]1(O)C(=O)OCc2c1cc1n(c2=O)Cc2cc3c(CN(C)C)c(O)ccc3nc2-1 + NC1CC1c1ccc(-c2cccc(O)c2)cc1
- IC50 (second compound 0.1 µM): 5.02 nM
- IC50 (second compound 0.316 µM): 4.87 nM
- IC50 (second compound 1 µM): 4.86 nM
- IC50 (second compound 3.16 µM): 4.67 nM
- IC50 (second compound 10 µM): 4.02 nM
- viability, T/C (second compound 0.1 µM, first compound 0.000316 µM): 112%
- viability, T/C (second compound 0.1 µM, first compound 0.001 µM): 109%
- viability, T/C [1]: 74.6%
- viability, T/C [2]: 13.2%
- viability, T/C [3]: 6.23%
- viability, T/C [4]: 2.94%
- viability, T/C (second compound 0.316 µM, first compound 0.000316 µM): 109%
- viability, T/C (second compound 0.316 µM, first compound 0.001 µM): 105%
- viability, T/C [7]: 73.6%
- viability, T/C [8]: 10.7%
- viability, T/C [9]: 4.65%
- viability, T/C [10]: 3.46%
- viability, T/C (second compound 1 µM, first compound 0.000316 µM): 119%
- viability, T/C (second compound 1 µM, first compound 0.001 µM): 109%
- viability, T/C [13]: 73.4%
- viability, T/C [14]: 10.8%
- viability, T/C [15]: 4.54%
- viability, T/C [16]: 2.99%
- viability, T/C (second compound 3.16 µM, first compound 0.000316 µM): 107%
- viability, T/C (second compound 3.16 µM, first compound 0.001 µM): 107%
- viability, T/C [19]: 70%
- viability, T/C [20]: 10.8%
- viability, T/C [21]: 5.39%
- viability, T/C [22]: 2.22%
- viability, T/C (second compound 10 µM, first compound 0.000316 µM): 104%
- viability, T/C (second compound 10 µM, first compound 0.001 µM): 109%
- viability, T/C [25]: 61%
- viability, T/C [26]: 8.93%
- viability, T/C [27]: 3.25%
- viability, T/C [28]: 2.9%

SMILES: COc1ccc([C@@H](O)c2cc(-c3ncnc4cc(N5CCOCC5)ccc34)c(F)cc2Cl)nn1 + NC1CCC(NC2CC2c2ccccc2)CC1
- IC50 (second compound 0.1 µM): 8630 nM
- IC50 (second compound 0.316 µM): 8980 nM
- IC50 (second compound 1 µM): 7650 nM
- IC50 (second compound 3.16 µM): 7270 nM
- IC50 (second compound 10 µM): 4560 nM
- viability, T/C [3]: 115%
- viability, T/C [4]: 118%
- viability, T/C [5]: 119%
- viability, T/C [6]: 108%
- viability, T/C [31]: 72.6%
- viability, T/C [32]: 46.7%
- viability, T/C [9]: 127%
- viability, T/C [10]: 123%
- viability, T/C [11]: 119%
- viability, T/C [12]: 110%
- viability, T/C [33]: 72.7%
- viability, T/C [34]: 47.8%
- viability, T/C [15]: 115%
- viability, T/C [16]: 116%
- viability, T/C [17]: 110%
- viability, T/C [18]: 104%
- viability, T/C [35]: 69.9%
- viability, T/C [36]: 44%
- viability, T/C [21]: 104%
- viability, T/C [22]: 116%
- viability, T/C [23]: 104%
- viability, T/C [24]: 95.8%
- viability, T/C [37]: 67.4%
- viability, T/C [38]: 43.4%
- viability, T/C [27]: 89.8%
- viability, T/C [28]: 81%
- viability, T/C [29]: 84.7%
- viability, T/C [30]: 81.6%
- viability, T/C [39]: 56.6%
- viability, T/C [40]: 35.8%

SMILES: CC1(C)CCC(CN2CCN(c3ccc(C(=O)NS(=O)(=O)c4ccc(NCC5CCOCC5)c([N+](=O)[O-])c4)c(Oc4cnc5[nH]ccc5c4)c3)CC2)=C(c2ccc(Cl)cc2)C1 + NC1CC1c1ccc(-c2cccc(O)c2)cc1
- IC50 (second compound 0.1 µM): > 10000 nM
- IC50 (second compound 0.316 µM): > 10000 nM
- IC50 (second compound 1 µM): > 10000 nM
- IC50 (second compound 3.16 µM): > 10000 nM
- IC50 (second compound 10 µM): 8090 nM
- viability, T/C [3]: 119%
- viability, T/C [4]: 114%
- viability, T/C [5]: 115%
- viability, T/C [6]: 110%
- viability, T/C [31]: 103%
- viability, T/C [32]: 66.6%
- viability, T/C [9]: 105%
- viability, T/C [10]: 114%
- viability, T/C [11]: 106%
- viability, T/C [12]: 111%
- viability, T/C [33]: 100%
- viability, T/C [34]: 68.6%
- viability, T/C [15]: 113%
- viability, T/C [16]: 114%
- viability, T/C [17]: 106%
- viability, T/C [18]: 106%
- viability, T/C [35]: 96.3%
- viability, T/C [36]: 60.9%
- viability, T/C [21]: 105%
- viability, T/C [22]: 110%
- viability, T/C [23]: 106%
- viability, T/C [24]: 101%
- viability, T/C [37]: 93.3%
- viability, T/C [38]: 57.3%
- viability, T/C [27]: 102%
- viability, T/C [28]: 95.7%
- viability, T/C [29]: 103%
- viability, T/C [30]: 90.8%
- viability, T/C [39]: 81.6%
- viability, T/C [40]: 42.6%
